From patent US9745339B2 (GRAFFINITY PHARMACEUTICALS GMBH, priority 2012, dated 2017)

Columns and labels:
[1] = test system: poly-IgG from human serum (h-poly-IgG); experiment: Microtiter plate chromatography of resins: binding and elution of human poly-IgG; details: fraction of injected protein bound; 0.5 mg/ml IgG in PBS pH 7.3
Method: (§1) Resins were assessed in packed mode by microtiter plate chromatography. For each column, approximately 30 μl of resin were transferred to a 384-well filter plate and sealed with appropriate top fits. Columns with rProtein A SEPHAROSE 4 FF and MABSORBENT A2P HF were included as controls.
(§2) Either 3.3 cv of whole IgGs dissolved at 0.5 mg ml^−1 in PBS or undiluted host cell proteins (HCP) were injected onto columns.
(§3) Unbound protein was washed from columns with 5 cv of PBS prior to elution with 5 cv of glycine buffer at pH 2.5. […] During injection of samples, speed was reduced to 10 g and centrifugation time increased to 5-10 min. Effluent fractions were collected in 384-well plates and concentrations of protein were analyzed by Bradford assay. Protein masses mi, mft and me (see below) were calculated as the product of fraction volume and measured protein concentration.
(§4) The fraction of bound protein was calculated as the difference between the total mass of protein injected mi and the mass of protein detected in the flowthrough mft, divided by the total mass of protein injected.
(§5) The yield of protein was calculated as the mass of protein eluted me, divided by the mass of protein injected mi.
(§6) The fraction of bound protein and the yield of protein were calculated for each resin based on data for whole IgG-antibodies. In the case of host cell proteins, only the fraction of bound protein is given. Selectivity of resins was calculated from data for Bevacizumab whole IgG and host cell proteins. Due to limited experimental precision, selectivity was truncated for values beyond 10.

Tocilizumab = experiment: Microtiter plate chromatography of resins: binding and elution of Tocilizumab; details: fraction of injected protein bound; 0.5 mg/ml IgG in PBS pH 7.3
Method: as §1, §2, §3, §4, §5, §6

Palivizumab = experiment: Microtiter plate chromatography of resins: binding and elution of Palivizumab; details: fraction of injected protein bound; 0.5 mg/ml IgG in PBS pH 7.3
Method: as §1, §2, §3, §4, §5, §6

Cetuximab = experiment: Microtiter plate chromatography of resins: binding and elution of Cetuximab; details: fraction of injected protein bound; 0.5 mg/ml IgG in PBS pH 7.3
Method: as §1, §2, §3, §4, §5, §6

Bevacizumab [2] = molecular target: T1, Bevacizumab (Homo sapiens, UniProt P01857); experiment: Uptake kinetics by batch adsorption (time-scale of binding); details: time after which 80% of equilibrium saturation occurred; 0.75 mg/ml Bevacizumab in PBS, 25° C.
T1 construct: 0.5 mg/ml IgG in PBS pH 7.3; ligand immobilized on SEPHAR; Bevacizumab Yield; other: mass eluted (glycine pH 2.5) / mass injected; kd (dissociation constant, Langmuir isotherm); other: Bevacizumab 0.05-5 mg/ml in PBS pH 7.3, 25° C., at least 3 h; qm (maximum capacity); other: mg Bevacizumab per ml of resin; Langmuir isotherm; t0; fused on or other part: Humanized anti-VEGF-A VH domain joined N-terminally to the IGHG1 constant region (engineered, no UniProt entry)
Method: Uptake kinetics was investigated similarly by batch adsorption in 96-well filter plates. Again, 10 μl of sorbent slurry (50% v/v) were mixed with 100 μl of protein solution. […] Reactions were agitated vigorously at 25° C. for up to 80 min. Supernatants were separated rapidly by spinning through filters after 2.5, 5, 10, 20, 40 and 80 minutes and sampled for analysis. Concentrations of the antibody were analyzed by Bradford assay.
For determination of t0.8, measured concentrations in the supernatant were interpolated by fitting of double-exponentials and values of t0.8 were read out from graphs (2).

Bevacizumab [3] = molecular target: T1, Bevacizumab; experiment: Langmuir isotherms by batch adsorption; assay type: binding; details: for qm (maximum capacity): mg Bevacizumab per ml of resin, Langmuir isotherm; for Kd: Bevacizumab 0.05-5 mg/ml in PBS pH 7.3, 25° C., at least 3 h, read-out: kd (dissociation constant, Langmuir isotherm) (converted)
Method: Experiments were performed with Bevacizumab as antibody. Parameters of Langmuir isotherms for purified antibody were determined by batch adsorption experiments in 96-well microtiter plates. In each well, 10 μl of sorbent slurry (50% v/v) were mixed with 100 μl of protein solution. Initial concentrations varied from 0.05-5 mg/ml in phosphate-buffered saline (0.15 M NaCl, 20 mM phosphate buffer, pH 7.3; PBS). Reactions were agitated vigorously at 25° C. for at least 3 h. Afterwards, antibody concentration in the supernatants were measured by Bradford assay. Data was evaluated by direct fitting of the values with the Langmuir isotherm equation (1).
Parameters of Langmuir isotherms, i.e. dissociation constants Kd and maximum capacities qm, were determined from the measured concentrations in the supernatants. Parameters were estimated by numerical fitting of the model equation derived by Chase (1)

host cell proteins (HCP) = experiment: Microtiter plate chromatography of resins: binding of host cell proteins; parameters: species or system CHO cell culture; details: fraction of injected undiluted host cell proteins bound
Method: Flowthrough from protein A chromatography (referred to as host cell proteins) was derived from the supernatant of antibody-producing CHO cell culture in serum-free medium. Coomassie brilliant blue dye reagent for Bradford assay was purchased from Thermo Scientific (Bonn/Germany).
as §1, §2, §3, §4, §6

Bevacizumab [4] = molecular target: T1, Bevacizumab; experiment: Microtiter plate chromatography of resins: binding and elution of Bevacizumab; details: for Bevacizumab Bound: fraction of injected protein bound, 0.5 mg/ml IgG in PBS pH 7.3, ligand immobilized on SEPHAROSE 4 FF; for Bevacizumab Yield: mass eluted (glycine pH 2.5) / mass injected
Method: as §1, §2, §3, §4, §5
(§7) The selectivity of resins was calculated as the fraction of bound Bevacizumab antibody BAb, divided by the fraction of bound host cell proteins BHCP.
as §6

Bevacizumab [5] = experiment: as above; details: fraction of bound Bevacizumab divided by fraction of bound HCP; truncated for values beyond 10
Method: as §1, §2, §3, §4, §5, §7, §6

| Structure (SMILES) | h-poly-IgG Bound [1] [%] | Tocilizumab Bound (Tocilizumab) [%] | Palivizumab Bound (Palivizumab) [%] | Cetuximab Bound (Cetuximab) [%] | t0.8 (time-scale of binding) (Bevacizumab [2]) [min] | qm (maximum capacity) (Bevacizumab [3]) [mg/mL] | HCP Bound (host cell proteins (HCP)) [%] | Bevacizumab Bound (Bevacizumab [4]) [%] | Bevacizumab Yield (Bevacizumab [4]) [%] | Kd (Bevacizumab [3]) [µM] | Selectivity (Bevacizumab [5]) |
| --- | --- | --- | --- | --- | --- | --- | --- | --- | --- | --- | --- |
| NCCOCCOCCn1cnc2cc(C(=O)Nc3nc(-c4ccccn4)cs3)ccc21 | 100 | 100 | 98 | 100 | 9.0 | 41 | 13 | 100 | 103 | – | – |
| NCCOCCOCCn1cnc2cc(C(=O)Nc3nnc(-c4ccco4)s3)ccc21 | 100 | 100 | 100 | 99 | 6.6 | 37 | 4 | 100 | 99 | 85.9 | – |
| N[C@@H](CCC(=O)NCCOCCOCCn1cnc2cc(C(=O)Nc3nnc(-c4ccco4)s3)ccc21)C(=O)NCCOCCOCCn1cnc2cc(C(=O)Nc3nnc(-c4ccco4)s3)ccc21 [Ligand L53] | 100 | 100 | 100 | 100 | 11.8 | 34 | 11 | 100 | 96 | 131 | – |
| Cc1nc2cc(C(=O)Nc3nnc(-c4ccco4)s3)ccc2n1CCOCCOCCN | 100 | 100 | 100 | 100 | 8.9 | 45 | 0 | 100 | 97 | 333 | – |
| Cc1nc2cc(C(=O)Nc3nnc(-c4ccco4)s3)ccc2n1CCOCCOCCNC(=O)CC[C@H](N)C(=O)NCCOCCOCCn1c(C)nc2cc(C(=O)Nc3nnc(-c4ccco4)s3)ccc21 [Ligand L54] | 100 | 100 | 100 | 100 | 8.4 | 35 | 4 | 100 | 95 | 46.9 | – |
| NCCCn1cnc2cc(C(=O)Nc3nccs3)ccc21 [Ligand L16, 1-(3-Amino-1-propyl)benzimidazole-5-carboxylic acid N-(thiazol-2-yl) amide] | 88 | 100 | 87 | 100 | – | – | 37 | 100 | 96 | – | 2.7 |
| NCCCn1cnc2cc(C(=O)Nc3nnc(-c4ccc5c(c4)OCO5)s3)ccc21 [Ligand L09, 1-(3-Amino-1-propyl)benzimidazole-5-carboxylic acid N-[2-(3,4-methylenedioxyphenyl)-1,3,4-thiadiazol-5-yl] amide] | 100 | 100 | 100 | 100 | – | – | 39 | 100 | 97 | – | 2.6 |
| NCCCn1c(=O)c(=O)[nH]c2cc(C(=O)Nc3nnc(-c4ccco4)s3)ccc21 [Ligand L28, 1-(3-Amino-1-propyl)-2,3-dioxo-1,2,3,4-tetrahydroquinoxaline-6-carboxylic acid N-[5-(2-furyl)-1,3,4-thiadiazol-2-yl]amide] | 63 | 98 | 58 | 89 | – | – | 12 | 100 | 95 | – | 8.3 |
| Cc1cnc(NC(=O)c2ccc3c(c2)ncn3CCCN)s1 [Ligand L17, 1-(3-Amino-1-propyl)benzimidazole-5-carboxylic acid N-(5-methylthiazol-2-yl) amide] | 89 | 100 | 88 | 100 | – | – | 34 | 100 | 100 | – | 2.9 |
| NCCOCCOc1ccc(C(=O)Nc2nnc(-c3ccco3)s2)cc1 [Ligand L37, 4-(5-Amino-3-oxa-1-pentyloxy)benzoic acid N-[5-(2-furyl)-1,3,4-thiadiazol-2-yl] amide] | 100 | 100 | 100 | 100 | – | – | 25 | 100 | 87 | – | 4.0 |
| NCCCn1cnc2cc(C(=O)Nc3nc4ccccc4o3)ccc21 [Ligand L08, 1-(3-Amino-1-propyl)benzimidazole-5-carboxylic acid N-(benzoxazol-2-yl) amide] | 95 | 100 | 91 | 100 | – | – | 39 | 100 | 100 | – | 2.6 |
| NCCCn1cnc2cc(C(=O)Nc3nc4ccccc4s3)ccc21 [Ligand L10, 1-(3-Amino-1-propyl)benzimidazole-5-carboxylic acid N-(benzothiazol-2-yl) amide] | 100 | 100 | 100 | 100 | – | – | 45 | 100 | 100 | – | 2.2 |
| Cc1ccc(NC(=O)c2ccc3c(c2)ncn3CCCN)nn1 [Ligand L34, 1-(3-Amino-1-propyl)benzimidazole-5-carboxylic acid N-(6-methylpyridazin-3-yl) amide] | 78 | 85 | 78 | 100 | – | – | 10 | 100 | 104 | – | 10.0 |
| NCCCOc1ccc(C(=O)Nc2nnc(-c3ccco3)s2)cc1 [Ligand L20, 4-[(1-Amino-3-propyl)oxy]benzoic acid N-[5-(2-furyl)-1,3,4-thiadiazol-2-yl] amide] | 100 | 100 | 100 | 100 | – | – | 35 | 100 | 100 | – | 2.9 |
